# Laboratory results as given in US11871713B2, “Rice cultivar designated ‘PVL02’” (Board of Supervisors of Louisiana State University and …, priority 2019, dated 2024).
# System: ‘PVL02’ rice
# Assay: Herbicide tolerance of rice cultivar 'PVL02'
# Format: in vivo, Oryza sativa
# Conditions: rice variety ‘PVL02’ carrying plastidic ACCase I1781(Am)L; rate not given
# Description: ‘PVL02’ is an early maturing, long-grain rice variety that is tolerant to ACCase herbicides. For example, ‘PVL02’ is tolerant to Quizalofop-P-ethyl, the generic name for ethyl (R)-2-[4-(6-chloroquinoxalin-2-yl) oxy)phenoxy]propionate, which is sold under the tradename Provisia™ herbicide. PVL02 has excellent milling potential, very low chalk, and a grain length-width ratio of 2.8. ‘PVL02’ was developed using a pedigree selection system at the Louisiana State University Agricultural Center's H. Rouse Caffey Rice Research Station (HRCRRS) in Crowley, Louisiana ‘PVL02’ was selected from the cross Cheniere/BASF 1-5, a cross that was made at the HRCRRS in 2012. ‘Cheniere’ is a commercially-available cultivar. An earlier experimental designation for the ‘PVL02’ line was PVL-108.
# The ‘PVL02’ line was developed from the bulk of a single F3 line (14P2980) made at the Puerto Rico winter rice nursery in 2014. ‘PVL02’ was evaluated in a Provisia preliminary yield trial at the HRCRRS in 2014 and 2015, under the experimental designation 14PVL108, before being entered into the Louisiana statewide commercial/advanced yield testing program in 2016-2018.
structure (smiles),measurement,value
CCOC(=O)[C@@H](C)Oc1ccc(Oc2cnc3cc(Cl)ccc3n2)cc1 [Quizalofop-P-ethyl],tolerance of the rice variety to the herbicide,tolerant
